Reference: ChEMBL document CHEMBL3407453, “LEADOPT: an automatic tool for structure-based lead optimization, and its application in structural optimizations of VEGFR2 and SYK inhibitors” (Eur J Med Chem, 2015)
Calls of active or inactive are those of the source. The calls are words filed in the database; no cut-off is given here.

Columns and labels:
[1] = biological target: T1, Vascular endothelial growth factor receptor 2 (Homo sapiens, UniProt P35968); experiment: Inhibition of VEGFR2 (unknown origin) by [33P]radiolabeled method
T1 sequence (P35968 whole entry): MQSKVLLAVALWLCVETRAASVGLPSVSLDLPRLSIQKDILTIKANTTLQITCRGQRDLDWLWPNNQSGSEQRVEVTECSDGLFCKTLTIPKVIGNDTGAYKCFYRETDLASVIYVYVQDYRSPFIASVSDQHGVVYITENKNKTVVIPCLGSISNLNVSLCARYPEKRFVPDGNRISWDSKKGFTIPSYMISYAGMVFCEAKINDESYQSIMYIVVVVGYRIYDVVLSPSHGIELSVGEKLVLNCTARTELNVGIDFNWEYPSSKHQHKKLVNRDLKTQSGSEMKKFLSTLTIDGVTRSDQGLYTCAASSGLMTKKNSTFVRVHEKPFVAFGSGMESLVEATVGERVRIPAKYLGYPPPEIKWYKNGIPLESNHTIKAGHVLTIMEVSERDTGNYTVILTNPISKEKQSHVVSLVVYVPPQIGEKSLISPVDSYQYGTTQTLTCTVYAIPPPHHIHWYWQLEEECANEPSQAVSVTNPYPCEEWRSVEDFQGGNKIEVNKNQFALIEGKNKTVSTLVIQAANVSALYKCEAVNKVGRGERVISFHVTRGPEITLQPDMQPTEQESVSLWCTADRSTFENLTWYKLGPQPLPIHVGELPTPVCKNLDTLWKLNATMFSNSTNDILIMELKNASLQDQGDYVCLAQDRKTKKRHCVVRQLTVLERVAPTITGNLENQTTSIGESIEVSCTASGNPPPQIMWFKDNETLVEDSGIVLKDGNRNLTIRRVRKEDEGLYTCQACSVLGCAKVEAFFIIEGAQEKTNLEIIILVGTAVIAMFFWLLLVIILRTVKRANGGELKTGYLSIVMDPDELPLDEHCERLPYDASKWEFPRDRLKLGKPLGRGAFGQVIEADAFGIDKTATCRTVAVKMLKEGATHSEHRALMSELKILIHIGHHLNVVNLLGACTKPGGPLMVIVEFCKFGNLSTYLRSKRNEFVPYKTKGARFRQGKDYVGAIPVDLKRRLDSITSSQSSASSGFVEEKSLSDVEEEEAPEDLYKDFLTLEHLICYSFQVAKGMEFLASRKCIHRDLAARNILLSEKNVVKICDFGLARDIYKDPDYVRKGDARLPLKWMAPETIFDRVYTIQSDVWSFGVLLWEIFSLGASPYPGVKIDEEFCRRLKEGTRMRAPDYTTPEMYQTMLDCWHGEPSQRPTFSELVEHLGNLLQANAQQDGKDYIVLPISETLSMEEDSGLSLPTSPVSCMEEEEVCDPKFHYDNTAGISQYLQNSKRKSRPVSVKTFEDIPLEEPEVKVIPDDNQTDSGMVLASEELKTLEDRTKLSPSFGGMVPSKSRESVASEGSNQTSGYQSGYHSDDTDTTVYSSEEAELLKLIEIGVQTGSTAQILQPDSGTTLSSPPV

[2] = biological target: T2, Tyrosine-protein kinase SYK (Homo sapiens, UniProt P43405); experiment: Inhibition of SYK (unknown origin)
MV4-11 = experiment: Cytotoxicity against human MV4-11 cells assessed as reduction in cell viability after 72 hrs by MTT assay; type: functional, cell-based; conditions: MV4-11, 72 h
[3] = biological target: T2, Tyrosine-protein kinase SYK; experiment: Inhibition of SYK-mediated ERK1/2 phosphorylation in human MV4-11 cells at 0.01 to 1 uM after 6 hrs by Western blot analysis; type: cell-based
[4] = biological target: T2, Tyrosine-protein kinase SYK; experiment: Inhibition of SYK-mediated FLT3 phosphorylation in human MV4-11 cells at 0.01 to 1 uM after 6 hrs by Western blot analysis; type: cell-based
Ramos = experiment: Cytotoxicity against human Ramos cells assessed as reduction in cell viability after 72 hrs by MTT assay; type: functional, cell-based
HUVEC [5] = experiment: Antiangiogenic activity in HUVEC cells assessed as inhibition of cell migration at 5 uM after 18 hrs by wound healing assay; type: functional, cell-based; conditions: Homo sapiens
[6] = biological target: T1, Vascular endothelial growth factor receptor 2; experiment: Inhibition of VEGFR2-mediated ERK1/2 phosphorylation in VEGF-stimulated HUVEC cells at 0.01 to 10 uM after 2 hrs by Western blot analysis; type: cell-based
HUVEC [7] = experiment: Antiangiogenic activity in HUVEC cells assessed as inhibition of cell migration after 18 hrs by wound healing assay; type: functional, cell-based; conditions: Homo sapiens
[8] = biological target: T1, Vascular endothelial growth factor receptor 2; conditions: HUVEC, at 0.01 to 10 µM
Description: Inhibition of VEGFR2 phosphorylation in VEGF-stimulated HUVEC cells at 0.01 to 10 uM after 2 hrs by Western blot analysis

IC50 [1] [nM]	IC50 [2] [nM]	Compound	other results
119	–	O=C(Nc1ccc(Oc2ccnc3ccccc23)cc1)Nc1ccc(Cl)c(C(F)(F)F)c1	–
–	1130	COc1cc(Nc2ncc(F)c(Nc3cccc(C(N)=O)c3)n2)cc(OC)c1OC	–
36	–	CNC(=O)c1nccc(Oc2ccc(NC(=O)Nc3nc4ccccc4s3)cc2)n1	–
120	–	Nc1nccc(Oc2ccc(NC(=O)Nc3nc4ccccc4s3)cc2)n1	–
214	–	N#Cc1cc(Oc2ccc(NC(=O)Nc3ccc(Cl)c(C(F)(F)F)c3)cc2)ccn1	–
–	13	Cc1cc(N)c2cc(Nc3nc(Nc4ccc(N5CCN(C)CC5)cc4)ncc3F)ccc2n1	IC50 (MV4-11): 3 nM; inhibition [3]: Active; inhibition [4]: Active; IC50 (Ramos): 510 nM
–	2960	COc1cc(Nc2ncc(F)c(Nc3ccc4nc(C)cc(N)c4c3)n2)cc(OC)c1OC	–
–	–	CNC(=O)c1cc(Oc2ccc(NC(=O)Nc3ccc(Cl)c(C(F)(F)F)c3)cc2)ccn1	inhibition (HUVEC [5]): Active
17	–	CNC(=O)c1cc(Oc2ccc(NC(=O)Nc3cc(C(C)(C)C)on3)cc2)ccn1	inhibition [6]: Active; inhibition (HUVEC [5]): Active; inhibition (HUVEC [7]): Dose-dependent effect; inhibition [8]: Active
–	326	COc1cc(Nc2ncc(F)c(Nc3cc(Cl)ccc3C(N)=O)n2)cc(OC)c1OC	–
23	–	Nc1nccc(Oc2ccc(NC(=O)Nc3ccc(Cl)c(C(F)(F)F)c3)cc2)n1	–
